How the values were obtained:
[1] = tested on: SK-MEL-2 (melanoma); test: MTS cell viability assay, SK-MEL-2; type: cell-based
Procedure: (§1) Cells were plated, the evening before treatment, for each treatment on 96-well plates (1×10^4 cells/well) in 100 μL volume per well. Analog solutions were prepared by diluting each test compound in DSMO (10 mM) with the appropriate cell growth media for each individual cell line, or in “Universal Media” if several cell lines were to be assayed in parallel, immediately prior to cell treatment. Universal Media consisted of 5 mL sodium pyruvate (100× liquid stock, MediaTech), 5 mL glucose (100×, 45% liquid stock, MediaTech), 5 mL Penicillin/Streptomycin (100× liquid stock, MediaTech), 10 mL sodium bicarbonate (50× liquid stock, MediaTech), 25 mL Fetal Calf Serum, 1.25 mL insulin (4 mg/mL, Gibco) and […] RPMI media with 2 mM L-glutamine for a total volume of 500 mL.
(§2) Cells were treated by aspirating plating media from each well and adding 80 μL of betulinic acid (control) or each analog solution in serial dilutions to the adherent cells. All treatments were performed in triplicate. Growth media (80 μL) was added to 3 blank wells (no cells) to measure background from the growth media. Growth media alone (no DMSO or test compound) was added to 3 wells containing cells to measure the baseline MTS activity. Vehicle (DMSO) control in serial dilutions, added to cells, was also included to monitor basal toxicity from DMSO. Cells were incubated at 37° C. for 72 h, or 120 h for the OVCAR cell lines. MTS reagent (per 96-well plate) were prepared by combining 2 mL of MTS working solution (Cell Titer AQueous Non-Radioactive Cell Proliferation Assay, Promega, cat#G1112), 100 μL of 0.92 mg/mL phenazine methosulfate/Dulbecco's PBS and 2.1 mL growth media. MTS reagent (40 μL) were added to each well and incubated at 37° C. for 1.5 to 4 h. Plates were gently shaken by hand until solution in each well appeared homogenous. Absorbances at 490 nm were measured on a Wallac Victor II plate reader at multiple time points following the addition of MTS reagent for each plate. Triplicate absorbance (490 nm) measurements were averaged following background (no cell) subtraction for each drug concentration. Percent Cell Viability was calculated for each drug concentration using the following equation:
(§3) {[Absorbance(analog treated)]/[Absorbance(DMSO treated)]}×100%
(§4) Cytotoxicity dose response for the triterpenoid derivatives synthesized in SK-MEL-2 (melanoma), A-375 (melanoma), Daoy (glioblastoma), LN-229 (glioblastoma), OVCAR-3 (ovarian carcinoma), HT-29 (colon carcinoma), MCF-7 (breast carcinoma) cell lines using the standard MTS assay is summarized in Table 1. In Table 1, compounds 22a-d and compounds 23a-c refer to structures 22 and 23 in Scheme 5, respectively. Compounds 24aa-an and 24ba-bq refer to structure 24 in Scheme 6. Compounds 26a-e refer to structure 26 in Scheme 6. Compounds 36a-c refer to structure 36 in Scheme 10.

[2] = tested on: A-375 (melanoma); test: MTS cell viability assay, A-375; type: cell-based
Procedure: as §1, §2, §3, §4

[3] = tested on: Daoy; test: MTS cell viability assay, Daoy; type: cell-based; settings: cells incubated 72 h
Procedure: as §1, §2, §3, §4

[4] = tested on: LN-229 (glioblastoma); test: MTS cell viability assay, LN-229; type: cell-based
Procedure: as §1, §2, §3, §4

[5] = tested on: OVCAR-3 (ovarian carcinoma); test: MTS cell viability assay, OVCAR-3; type: cell-based
Procedure: as §1, §2, §3, §4

[6] = tested on: HT-29 (colon carcinoma); test: MTS cell viability assay, HT-29; type: cell-based
Procedure: as §1, §2, §3, §4

[7] = tested on: MCF-7 (breast carcinoma); test: MTS cell viability assay, MCF-7; type: cell-based
Procedure: as §1, §2, §3, §4

[8] = tested on: CEM; test: MTS cell viability assay, CEM; type: cell-based; settings: cells incubated 72 h
Procedure: as §1, §2, §3

[9] = tested on: H-146; test: MTS cell viability assay, H-146; type: cell-based
Procedure: as §1, §2, §3

[10] = Homo sapiens, SK-MEL-2, cells incubated 72 h
[11] = Homo sapiens, A-375, cells incubated 72 h
[12] = Homo sapiens, LN-229, cells incubated 72 h
[13] = Homo sapiens, OVCAR-3, 120 h for the OVCAR cell lines
[14] = Homo sapiens, HT-29, cells incubated 72 h
[15] = Homo sapiens, MCF7, cells incubated 72 h
[16] = Homo sapiens, NCI-H146, cells incubated 72 h

C=C(CO)[C@@H]1CC[C@]2(CO)CC[C@]3(C)[C@H](CC[C@@H]4[C@@]5(C)CCC(N)C(C)(C)[C@@H]5CC[C@]43C)[C@@H]12 (some centres unmarked) [Compound 24ab]
IC50 [1, 10]: 34 µM | IC50 [2, 11]: 6 µM | IC50 ([3]; Homo sapiens, Daoy): 31 µM | IC50 [4, 12]: 17 µM | IC50 [5, 13]: 14 µM | IC50 [6, 14]: 17 µM | IC50 [7, 15]: 15 µM | melting point: 189 to 199 °C

C=C(C)[C@@H]1CC[C@]2(C(=O)O)CC[C@]3(C)[C@H](CC[C@@H]4[C@@]5(C)CC[C@H](O)C(C)(C)[C@@H]5CC[C@]43C)[C@@H]12 [Compound 1, betulinic acid (3β-hydroxy-lup-20(29)-en-28-oic acid), reference compound]
IC50 ([1]; cells incubated 72 h): 7 µM | IC50 ([2]; cells incubated 72 h): 22 µM | IC50 [3]: 11 µM | IC50 ([4]; cells incubated 72 h): 29 µM | IC50 ([5]; 120 h for the OVCAR cell lines): 40 µM | IC50 ([6]; cells incubated 72 h): 31 µM | IC50 ([7]; cells incubated 72 h): 30 µM | IC50 [8]: 2 µM | IC50 ([9]; cells incubated 72 h): 8 µM

C=C(CO)[C@@H]1CC[C@]2(CO)CC[C@]3(C)[C@H](CC[C@@H]4[C@@]5(C)C=CC(=O)C(C)(C)[C@@H]5CC[C@]43C)[C@@H]12 [Compound 30]
IC50 [1, 10]: > 75 µM | IC50 [2, 11]: 61 µM | IC50 ([3]; Homo sapiens, Daoy): > 75 µM | IC50 [4, 12]: 68 µM | IC50 [5, 13]: > 75 µM | IC50 [6, 14]: 67 µM | IC50 [7, 15]: > 75 µM | IC50 ([8]; Homo sapiens, CCRF-CEM): 16 µM | IC50 [9, 16]: 66 µM

C=C(C=O)[C@@H]1CC[C@]2(COC3CCCCO3)CC[C@]3(C)[C@H](CC[C@@H]4[C@@]5(C)C=CC(=O)C(C)(C)[C@@H]5CC[C@]43C)[C@@H]12 (some centres unmarked) [Compound 34]
IC50 [1, 10]: 2 µM | IC50 [2, 11]: 1 µM | IC50 ([3]; Homo sapiens, Daoy): 6 µM | IC50 [4, 12]: 6 µM | IC50 [5, 13]: 2 µM | IC50 [6, 14]: 2 µM | IC50 [7, 15]: 8 µM | IC50 ([8]; Homo sapiens, CCRF-CEM): 1 µM | IC50 [9, 16]: 2 µM

C=C(C(OC)OC)[C@@H]1CC[C@]2(CO)CC[C@]3(C)[C@H](CC[C@@H]4[C@@]5(C)CCC(=O)C(C)(C)[C@@H]5CC[C@]43C)[C@@H]12 [Compound 10]
IC50 [1, 10]: 17 µM | IC50 [2, 11]: 7 µM | IC50 ([3]; Homo sapiens, Daoy): 17 µM | IC50 [4, 12]: 24 µM | IC50 [5, 13]: 45 µM | IC50 [6, 14]: 15 µM | IC50 [7, 15]: 17 µM

C=C(C=O)[C@@H]1CC[C@]2(CO)CC[C@]3(C)[C@H](CC[C@@H]4[C@@]5(C)C=CC(=O)C(C)(C)[C@@H]5CC[C@]43C)[C@@H]12 [Compound 35]
IC50 [1, 10]: 14 µM | IC50 [2, 11]: 6 µM | IC50 ([3]; Homo sapiens, Daoy): 17 µM | IC50 [4, 12]: 58 µM | IC50 [5, 13]: 6 µM | IC50 [6, 14]: 8 µM | IC50 [7, 15]: 32 µM | IC50 ([8]; Homo sapiens, CCRF-CEM): 2 µM | IC50 [9, 16]: 5 µM

C=C(CO)[C@@H]1CC[C@]2(CO)CC[C@]3(C)[C@H](CC[C@@H]4[C@@]5(C)CCC(NCCNC(=O)OC(C)(C)C)C(C)(C)[C@@H]5CC[C@]43C)[C@@H]12 (some centres unmarked) [Compound 24am]
IC50 ([1]; cells incubated 72 h): 16 µM | IC50 ([2]; cells incubated 72 h): 17 µM | IC50 [3]: 16 µM | IC50 ([4]; cells incubated 72 h): 17 µM | IC50 ([5]; 120 h for the OVCAR cell lines): 2.5 µM | IC50 ([6]; cells incubated 72 h): > 75 µM | IC50 ([7]; cells incubated 72 h): 35 µM

C=C(COS(C)(=O)=O)[C@@H]1CC[C@]2(CO)CC[C@]3(C)[C@H](CC[C@@H]4[C@@]5(C)CCC(=O)C(C)(C)[C@@H]5CC[C@]43C)[C@@H]12 [Compound 21b]
IC50 [1, 10]: > 75 µM | IC50 [2, 11]: 21 µM | IC50 ([3]; Homo sapiens, Daoy): > 75 µM | IC50 [4, 12]: 46 µM | IC50 [5, 13]: > 75 µM | IC50 [6, 14]: 17 µM | IC50 [7, 15]: 54 µM

C=C(CO)[C@@H]1CC[C@]2(CO)CC[C@]3(C)[C@H](CC[C@@H]4[C@@]5(C)CCC(NCCOC)C(C)(C)[C@@H]5CC[C@]43C)[C@@H]12 (some centres unmarked) [Compound 24af]
IC50 ([1]; cells incubated 72 h): 38 µM | IC50 ([2]; cells incubated 72 h): 18 µM | IC50 [3]: 34 µM | IC50 ([4]; cells incubated 72 h): 38 µM | IC50 ([5]; 120 h for the OVCAR cell lines): 40 µM | IC50 ([6]; cells incubated 72 h): 47 µM | IC50 ([7]; cells incubated 72 h): 40 µM

C=C(CO)[C@@H]1CC[C@]2(COC3CCCCO3)CC[C@]3(C)[C@H](CC[C@@H]4[C@@]5(C)CCC(NCCc6ccc(O)c(O)c6)C(C)(C)[C@@H]5CC[C@]43C)[C@@H]12 (some centres unmarked) [Compound 24ai]
IC50 [1, 10]: 5 µM | IC50 [2, 11]: 14 µM | IC50 ([3]; Homo sapiens, Daoy): 6 µM | IC50 [4, 12]: 16 µM | IC50 [5, 13]: 4 µM | IC50 [6, 14]: 26 µM | IC50 [7, 15]: 16 µM

C=C(CO)[C@@H]1CC[C@]2(CO)CC[C@]3(C)[C@H](CC[C@@H]4[C@@]5(C)CCC(NCCO)C(C)(C)[C@@H]5CC[C@]43C)[C@@H]12 (some centres unmarked) [Compound 24ad]
IC50 [1, 10]: 34 µM | IC50 [2, 11]: 16 µM | IC50 ([3]; Homo sapiens, Daoy): 29 µM | IC50 [4, 12]: 37 µM | IC50 [5, 13]: 39 µM | IC50 [6, 14]: 65 µM | IC50 [7, 15]: 41 µM

C=C(CO)[C@@H]1CC[C@]2(CO)CC[C@]3(C)[C@H](CC[C@@H]4[C@@]5(C)CCC(=O)C(C)(C)[C@@H]5CC[C@]43C)[C@@H]12 [Compound 7a]
IC50 [1, 10]: > 75 µM | IC50 [2, 11]: 40 µM | IC50 ([3]; Homo sapiens, Daoy): > 75 µM | IC50 [4, 12]: > 75 µM | IC50 [5, 13]: 43 µM | IC50 [6, 14]: 44 µM | IC50 [7, 15]: 43 µM | IC50 ([8]; Homo sapiens, CCRF-CEM): 45 µM | IC50 [9, 16]: 60 µM

C=C(CO)[C@@H]1CC[C@]2(COC3CCCCO3)CC[C@]3(C)[C@H](CC[C@@H]4[C@@]5(C)CCC(NCCO)C(C)(C)[C@@H]5CC[C@]43C)[C@@H]12 (some centres unmarked) [Compound 24ac]
IC50 [1, 10]: 15 µM | IC50 [2, 11]: 13 µM | IC50 ([3]; Homo sapiens, Daoy): 15 µM | IC50 [4, 12]: 11 µM | IC50 [5, 13]: 7 µM | IC50 [6, 14]: 60 µM | IC50 [7, 15]: 36 µM

C=C(CNCCO)[C@@H]1CC[C@]2(CO)CC[C@]3(C)[C@H](CC[C@@H]4[C@@]5(C)CCC(=O)C(C)(C)[C@@H]5CC[C@]43C)[C@@H]12 [Compound 22b]
IC50 [1, 10]: 45 µM | IC50 [2, 11]: 10 µM | IC50 ([3]; Homo sapiens, Daoy): 47 µM | IC50 [4, 12]: 16 µM | IC50 [5, 13]: 67 µM | IC50 [6, 14]: 45 µM | IC50 [7, 15]: 47 µM

C=C(C)[C@@H]1CC[C@]2(COC3CCCCO3)CC[C@]3(C)[C@H](CC[C@@H]4[C@@]5(C)C=C(C=O)C(=O)C(C)(C)[C@@H]5CC[C@]43C)[C@@H]12 (some centres unmarked) [Compound 32]
IC50 [1, 10]: < 2 µM | IC50 [2, 11]: 6 µM | IC50 ([3]; Homo sapiens, Daoy): < 2 µM | IC50 [4, 12]: 2 µM | IC50 [5, 13]: 6 µM | IC50 [6, 14]: 6 µM | IC50 [7, 15]: 6 µM

— patent publication US20090062243A1, “Lupane-Type Triterpenoids Modified at 30-Position and Analogues Thereof” (ADVANCED LIFE SCIENCES, INC., priority 2007, published 2009)
